{"source": "patent US4153709A", "about": "“N-Heterocyclic ureas as immune regulants” (Eli Lilly and Company, priority 1977, dated 1979)", "key": {"[1]": {"test_system": "antibody to sheep red blood cells", "experiment": "75 percent reduction of control antibody titer in mice by subcutaneous, percutaneous and oral routes (Table 16)", "format": "in vivo, male Swiss mice", "conditions": "Mus musculus, Erythrocyte, × 10 daily doses commencing 3 days before antigen i.v.", "protocol": "Subcutaneous, percutaneous, and oral activity have been achieved as indicated in Table 16 which follows employing representative compounds from the above entitled application. […] Except as indicated, the tests were performed using groups of five 20-gram male Swiss mice injected with 5×10^7 sheep red blood cells intravenously for each drug level. Ten (daily) administrations of drug were made commencing three days prior to red blood cell injection. On the day following the final treatment (7 days after red blood cell injection) the animals were bled by cardiac puncture, the sera from each five-mouse-group were pooled, and antibody titers of these serum pools and corresponding serum pools from control (untreated) mouse groups were determined. The results are expressed as the minimum drug dose effecting 75 percent reduction of control antibody titer: […]"}, "[2]": {"test_system": "antibody to sheep red blood cells", "experiment": "Oral immunoregulating activity in marmosets (Table 17)", "format": "in vivo", "protocol": "The animals in the treated group received 10 daily 100 mg/kg doses of the drug by oral gavage. On the 4th treatment day, these animals and a similar group of controls were given intraperitoneal injections of 1×10^9 sheep red blood cells. On the 12th day following antigen injection, serum levels of antibody were determined.\n*Notation: Day 0 = day of antigen injection, Day -1 = day previous, Day +"}, "[3]": {"test_system": "fatal glomerulonephritis in NZB/w mice", "format": "in vivo", "conditions": "for MST (mean survival time) / Percent Survivors: 300th day", "text": "NZB/w mice provide a close model of the human autoimmune disease, lupus erythematosis. These hybrid mice develop antinuclear antoantibody in the early months of life, which antibody becomes deposited in the glomeruli in the form of a complex with the inciting antigen. A fatal glomerulonephritis ensues. A group of these mice had been placed under continuous therapy (via the feed) with 1-(6-methoxy-2-benzothiazolyl)-3-) phenyl urea for 300 days. The mice were divided into three subgroups, 10 mice receiving 75 mg/kg/day of drug, 10 mice receiving 25 mg/kg/day, and 11 mice serving as untreated controls.\nIn view of the close parallel of this murine model to the human counterpart, this would appear of significance in terms of long-term human therapy."}, "[4]": {"test_system": "Salmonella typhimurium G46 missense histidine-auxotroph", "format": "cell-based", "conditions": "750 mcg/ml", "protocol": "(§1) Compounds found active in the qualitative test were further tested. The culture to be tested was grown to stationary phase in tryptone yeast broth and then diluted to a viable count of about 9×10^7 organisms per milliliter.\nEleven log4 dilutions of the test compound were made covering a range that would allow survival of nonlethal mutants. The dilutions were made in Spizizen's minimal media with minute amounts of histidine and biotin (20 nM) each in […]. tubes. Each tube contained 3 ml. after dilution. Replicate 1 ml. aliquots of test organism were added to each tube including six \"0\" drug tubes. Final drug concentrations were calculated from 4-ml. volumes (3 ml. drug dilution +1 ml. test organism). Two of the \"0\" drug tubes were immediately plated at 10° dilution in minimal medium and 10^-5, 10^-6, 10^-7 dilutions in medium containing excess histidine (40 mcg/ml.) Spontaneous revertants (histidine+) were detected in the 10° dilution. Mutable population (histidine-) were detected in the 10^-5, 10^-6, and 10^-7 dilutions. All remaining dilutions were incubated in a Dubonoff shaker at 37° C. for 4 hr., then iced at 4° C. […] A 1-ml. aliquot from each \"0\" control was also plated at 10^-6, 10^-7, and 10^-8 dilutions in media with excess histidine to detect growth of mutable population (histidine-); normally there are 3-4 generations of the mutable population. All minimal media plates were counted. A dose response increase in revertants above spontaneous background indicated mutagenic potential of a test compound. […] Lethality has occurred to both populations, histidine+ and histidine-, at the same compound levels in all drugs tested to date.\nThe results are recorded as mutants test/mutants control."}, "[5]": {"test_system": "twelve histidine-auxotrophs of Salmonella typhimurium", "format": "cell-based", "protocol": "The in vivo and in vitro mutagenic potential of 1-(6-methoxy-2-benzothiazolyl)-3-phenyl-urea was negative when tested versus the twelve histidine-auxotrophs of Salmonella typhimurium at a level of 300 mg/kg in vivo and 750 mcg/ml in vitro. Imuran and Cytoxan, compounds with immunosuppressive activity; Streptozotacin, N-nitrosodimethylamine (DMNA) and trimethylenemelamine (TEM) known mutagens and/or carcinogens; and Acetylsalicylic Acid (ASA) were used as control compounds.\nThe plates were read as follows:\nas §1\nEleven log4 dilutions of the test compound were made covering a range that would allow survival of nonlethal mutants. […] Final drug concentrations were calculated from 4-ml. volumes (3 ml. drug dilution +1 ml. test organism). Two of the \"0\" drug tubes were immediately plated at 10° dilution in minimal medium and 10^-5, 10^-6, 10^-7 dilutions in medium containing excess histidine (40 mcg/ml.) Spontaneous revertants (histidine+) were detected in the 10° dilution. Mutable population (histidine-) were detected in the 10^-5, 10^-6, and 10^-7 dilutions. […] All minimal media plates were counted. […]"}, "[6]": {"test_system": "Salmonella typhimurium G46 missense histidine-auxotroph", "experiment": "Qualitative in vitro prescreen for mutagenicity, G46 indicator (Table 22)", "conditions": "200 mcg disc", "excerpt": "Filter paper discs 1/4\" were impregnated with 200 mcg of test compound using either H2 O or DMSO as solvent. The discs were placed on Petri dishes containing minimal media which had been individually seeded with one of the twelve tester strains. […] A uniform circle of colonies appear around the pad when a compound with mutagenic potential is present. The test compound forms a concentration gradient as it diffuses from the pad. Occasionally, there is a clear ring in close proximity to the pad surrounded by a uniform circle of revertant colonies which indicates a lethal mutation at high concentration of compound and nonlethal mutation at lesser concentration. A single pad thus allows one to test a compound over a wide range of concentrations. Histidine+ colonies were developed enough to read after 48 hr. incubation at 37° C. The plates were read as follows:\nA. background zone, if present, is measured in millimeters, if not, a negative is recorded (-).\nB. mutant zone is measured in millimiters, if present; if not, a negative (-) is recorded.\nC. the mutation frequency can be estimated from density of mutant colonies as follows:\n1. Low frequency--few colonies\n2. Moderate frequency--many colonies\n3. High frequency--dense ring of colonies\n4. No colonies recorded (-)"}, "[7]": {"conditions": "10 daily 100 mg/kg doses oral, individual marmoset, 100 mg/kg"}}, "note": "“And” between values parts separate entries of the source, which are not always exact repeats. Equal values may be shown once. Read-outs that look alike come from different tables or passages of the source.", "data": [{"smiles": "COc1ccc2nc(NC(=O)Nc3ccccc3)sc2c1", "note": "[Table 11: phenyl, 6-CH3 O, S, 1-(6-methoxy-2-benzothiazolyl)-3-phenyl urea]", "values": [{"measurement": "minimal effective dose", "setting": "[1]; sc, subcutaneous, read-out: Lowest Dose Producing 75% Immunosuppression, Subcutaneous", "result": "0.8 to 1.6", "unit": "mg/kg"}, {"measurement": "minimal effective dose", "setting": "[1]; oral, read-out: Lowest Dose Producing 75% Immunosuppression, Oral", "result": "12.5 to 25", "unit": "mg/kg"}, {"measurement": "minimal effective dose", "setting": "[1]; percutaneous, read-out: Lowest Dose Producing 75% Immunosuppression, Percutaneous", "result": 12.5, "unit": "mg/kg"}, {"measurement": "detectable antibody response", "setting": "[2]; 10 daily 100 mg/kg doses by oral gavage, 12th day following antigen, control four out of five", "result": "none of the treated marmosets showed a detectable response"}, {"measurement": "Weight Change (%) Day +6 to +19", "setting": "[2]; [7]", "result": "-6.8% and +9.1% and +6.0% and +5.7%"}, {"measurement": "Weight Change (%) Day -7 to +6", "setting": "[2]; [7]", "result": "-18.8% and -6.2% and -21.4% and -5.7% and -8.2%"}, {"measurement": "Antibody Titer (reciprocal) Day +12", "setting": "[2]; 10 daily 100 mg/kg doses oral, individual marmoset, Day 0 = antigen injection", "result": "< 5"}, {"measurement": "animals gaining weight by the 19th day", "setting": "[2]; 10 daily 100 mg/kg doses oral, treated group", "result": "four of the five animals were gaining weight"}, {"measurement": "MST (mean survival time)", "setting": "[3]; 25 mg/kg/day in feed", "result": 214, "unit": "days"}, {"measurement": "Percent Survivors", "setting": "[3]; 25 mg/kg/day in feed", "result": 60, "unit": "%"}, {"measurement": "Day of Death", "setting": "[3]; 75 mg/kg/day in feed, 10 mice, 300 days", "result": "180,281"}, {"measurement": "MST (mean survival time)", "setting": "[3]; 75 mg/kg/day in feed", "result": 286, "unit": "days"}, {"measurement": "Percent Survivors", "setting": "[3]; 75 mg/kg/day in feed", "result": 80, "unit": "%"}, {"measurement": "effect on survival parameters", "setting": "[3]; 300 days of therapy, 25 and 75 mg/kg/day", "result": "A dose-related effect of the drug on survival parameters"}, {"measurement": "effect on life span", "setting": "[3]; female NZBxW mice", "result": "able to prolong the life of female NZBxW mice"}, {"measurement": "IN VITRO QUANTITATIVE MT/MC", "setting": "[4]", "result": ".90"}, {"measurement": "in vitro mutagenic potential", "setting": "[5]; 750 mcg/ml", "result": "negative"}, {"measurement": "mutagenicity for point mutations (overall statement)", "setting": "[5]; histidine- auxotrophs of Salmonella typhimurium", "result": "non-mutagenic"}, {"measurement": "IN VITRO QUALITATIVE ACTIVITY", "setting": "[6]", "result": "N"}]}]}
